Assay results: ChEMBL document CHEMBL1828590 (J Med Chem, 2011)
pIC50, pKi: −log10 of the molar value.

Columns and labels:
[1] = system: Mus musculus; experiment: Toxicity in athymic nu/nu Harlan mouse xenografted with human HCT116 cells assessed as body weight loss at 100 mg/kg, po QD for 21 days measured on day 22; format: organism-based, HCT-116; set-up: dose 100 mg/kg, route oral; details: in vivo, 504 h
[2] = system: Mus musculus; experiment: Toxicity in athymic nu/nu Harlan mouse xenografted with human HCT116 cells assessed as body weight loss at 50 mg/kg, po QD for 21 days measured on day 5; format: organism-based, HCT-116; set-up: dose 50 mg/kg, route oral; details: in vivo, 504 h
[3] = system: Mus musculus; experiment: Toxicity in athymic nu/nu Harlan mouse xenografted with human HCT116 cells assessed as mouse survival at 25 mg/kg, po QD for 21 days measured on day 22; format: organism-based, HCT-116; set-up: dose 25 mg/kg, route oral; details: in vivo, 504 h
[4] = Half life in human liver microsomes; format: ADME, Microsome
[5] = Half life in rat liver microsomes; format: ADME, Microsome
[6] = Apparent permeability from apical to basolateral side of human Caco2 cells; format: ADME, cell-based; details: Caco-2
[7] = Kinetic solubility of the compound at pH 7 with […] DMSO; format: physicochemical; details: buffer, read-out: Kinetic_solubility
[8] = 1-Octanol-sodium phosphate buffer distribution coefficient, log D of the compound at pH 7.4; format: physicochemical; details: 1-octanol/sodium phosphate buffer, read-out: logD
[9] = Half life in mouse liver microsomes; format: ADME, Microsome; details: liver microsomes
[10] = Apparent permeability from basolateral to apical side of human Caco2 cells; format: ADME, cell-based; details: Caco-2
[11] = system: HCT-116; experiment: Antitumor activity against human HCT116 cells xenografted in athymic nu/nu Harlan mouse assessed as tumor growth inhibition at 50 mg/kg, po qd for 21 days measured on day 22; format: functional; details: read-out: TGI
[12] = system: Mus musculus; experiment: Toxicity in athymic nu/nu Harlan mouse xenografted with human HCT116 cells assessed as mouse survival at 100 mg/kg, po QD for 21 days measured on day 22; format: organism-based, HCT-116; set-up: dose 100 mg/kg, route oral; details: in vivo, 504 h
[13] = Half life in dog liver microsomes; format: ADME, Canis lupus familiaris, Microsome
[14] = system: Mus musculus; experiment: Toxicity in athymic nu/nu Harlan mouse xenografted with human HCT116 cells assessed as mouse survival at 50 mg/kg, po QD for 21 days measured on day 22; format: organism-based, HCT-116; set-up: dose 50 mg/kg, route oral; details: in vivo, 504 h
[15] = system: HCT-116; experiment: Antitumor activity against human HCT116 cells xenografted in athymic nu/nu Harlan mouse assessed as tumor growth inhibition at 25 mg/kg, po qd for 21 days measured on day 22; format: functional; details: read-out: TGI
[16] = system: HCT-116; experiment: Antitumor activity against human HCT116 cells xenografted in athymic nu/nu Harlan mouse assessed as tumor growth inhibition at 100 mg/kg, po qd for 21 days measured on day 22; format: functional; details: read-out: TGI
[17] = system: Mus musculus; experiment: Toxicity in athymic nu/nu Harlan mouse xenografted with human HCT116 cells assessed as body weight loss at 200 mg/kg, po QD for 7 days measured on day 5; details: in vivo, 168 h
[18] = system: Mus musculus; experiment: Toxicity in athymic nu/nu Harlan mouse xenografted with human HCT116 cells assessed as mouse survival at 50 mg/kg, po QD for 7 days measured on day 22; format: organism-based, HCT-116; set-up: dose 50 mg/kg, route oral; details: in vivo, 168 h
[19] = system: Mus musculus; experiment: Toxicity in athymic nu/nu Harlan mouse xenografted with human HCT116 cells assessed as mouse survival at 100 mg/kg, po QD for 7 days measured on day 22; format: organism-based, HCT-116; set-up: dose 100 mg/kg, route oral; details: in vivo, 168 h
[20] = system: HCT-116; experiment: Antitumor activity against human HCT116 cells xenografted in athymic nu/nu Harlan mouse assessed as tumor growth inhibition at 100 mg/kg, po qd measured on day 22; details: HCT-116, po, read-out: TGI
[21] = system: Mus musculus; experiment: Toxicity in athymic nu/nu Harlan mouse xenografted with human HCT116 cells assessed as body weight loss at 50 mg/kg, po QD for 21 days measured on day 5; details: in vivo, 504 h
[22] = system: HCT-116; experiment: Antitumor activity against human HCT116 cells xenografted in athymic nu/nu Harlan mouse assessed as tumor growth inhibition at 200 mg/kg, po qd for 7 days measured on day 22; format: functional; details: read-out: TGI
[23] = system: HCT-116; experiment: Antitumor activity against human HCT116 cells xenografted in athymic nu/nu Harlan mouse assessed as tumor growth inhibition at 50 mg/kg, po qd for 21 days measured on day 22; details: HCT-116, po, read-out: TGI
[24] = system: Mus musculus; experiment: Toxicity in athymic nu/nu Harlan mouse xenografted with human HCT116 cells assessed as body weight loss at 100 mg/kg, po QD for 7 days measured on day 5; format: organism-based, HCT-116; set-up: dose 100 mg/kg, route oral; details: in vivo, 168 h
[25] = system: PC-3; experiment: Antiproliferative activity against human PC3 cells after 96 hrs by celltiter 96 assay; format: functional, cell-based; details: PC-3, 96 h
[26] = system: A2780; experiment: Antiproliferative activity against human A2780 cells after 96 hrs by celltiter 96 assay; format: functional, cell-based; details: A2780, 96 h
[27] = system: HCT-116; experiment: Antitumor activity against human HCT116 cells xenografted in athymic nu/nu Harlan mouse assessed as tumor growth inhibition at 200 mg/kg, po qd for 21 days measured on day 22; format: functional; details: read-out: TGI
[28] = target: T1, Protein deacetylase HDAC6 (Homo sapiens, UniProt Q9UBN7)
T1 sequence (Q9UBN7 whole entry): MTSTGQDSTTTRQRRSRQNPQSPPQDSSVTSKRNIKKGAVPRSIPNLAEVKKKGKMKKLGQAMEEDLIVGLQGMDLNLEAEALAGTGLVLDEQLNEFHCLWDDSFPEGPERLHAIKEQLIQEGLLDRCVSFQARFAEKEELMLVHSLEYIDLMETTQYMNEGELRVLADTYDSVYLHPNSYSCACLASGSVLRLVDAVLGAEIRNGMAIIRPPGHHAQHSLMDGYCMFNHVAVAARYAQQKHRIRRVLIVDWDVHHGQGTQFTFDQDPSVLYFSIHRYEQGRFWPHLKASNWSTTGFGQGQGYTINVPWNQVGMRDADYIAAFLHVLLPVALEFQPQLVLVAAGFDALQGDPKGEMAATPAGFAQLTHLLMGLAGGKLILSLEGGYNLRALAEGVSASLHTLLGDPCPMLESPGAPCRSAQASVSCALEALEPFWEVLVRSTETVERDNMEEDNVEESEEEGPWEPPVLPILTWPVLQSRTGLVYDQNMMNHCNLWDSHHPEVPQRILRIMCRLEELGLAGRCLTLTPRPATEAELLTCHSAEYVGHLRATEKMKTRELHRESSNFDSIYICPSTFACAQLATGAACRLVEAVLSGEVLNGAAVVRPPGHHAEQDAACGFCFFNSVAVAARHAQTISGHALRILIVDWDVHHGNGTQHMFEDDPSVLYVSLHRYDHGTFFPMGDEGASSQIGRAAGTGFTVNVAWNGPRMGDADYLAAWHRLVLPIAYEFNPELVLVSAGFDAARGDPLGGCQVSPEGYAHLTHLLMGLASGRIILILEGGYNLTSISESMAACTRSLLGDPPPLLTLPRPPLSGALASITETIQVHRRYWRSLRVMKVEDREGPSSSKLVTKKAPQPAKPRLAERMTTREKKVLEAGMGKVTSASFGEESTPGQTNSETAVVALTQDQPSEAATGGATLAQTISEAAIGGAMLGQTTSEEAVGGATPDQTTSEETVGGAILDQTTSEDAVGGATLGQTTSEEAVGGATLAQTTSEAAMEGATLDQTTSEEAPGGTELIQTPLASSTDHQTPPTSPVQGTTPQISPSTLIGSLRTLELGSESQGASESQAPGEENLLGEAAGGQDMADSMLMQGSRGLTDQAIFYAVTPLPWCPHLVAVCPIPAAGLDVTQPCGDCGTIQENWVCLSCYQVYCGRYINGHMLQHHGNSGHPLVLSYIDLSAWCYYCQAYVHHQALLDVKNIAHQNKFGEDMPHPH
Description: Competitive inhibition of HDAC6 using KI-104 as substrate by fluorescence assay

[29] = target: T2, Polyamine deacetylase HDAC10 (Homo sapiens, UniProt Q969S8)
T2 sequence (Q969S8 whole entry): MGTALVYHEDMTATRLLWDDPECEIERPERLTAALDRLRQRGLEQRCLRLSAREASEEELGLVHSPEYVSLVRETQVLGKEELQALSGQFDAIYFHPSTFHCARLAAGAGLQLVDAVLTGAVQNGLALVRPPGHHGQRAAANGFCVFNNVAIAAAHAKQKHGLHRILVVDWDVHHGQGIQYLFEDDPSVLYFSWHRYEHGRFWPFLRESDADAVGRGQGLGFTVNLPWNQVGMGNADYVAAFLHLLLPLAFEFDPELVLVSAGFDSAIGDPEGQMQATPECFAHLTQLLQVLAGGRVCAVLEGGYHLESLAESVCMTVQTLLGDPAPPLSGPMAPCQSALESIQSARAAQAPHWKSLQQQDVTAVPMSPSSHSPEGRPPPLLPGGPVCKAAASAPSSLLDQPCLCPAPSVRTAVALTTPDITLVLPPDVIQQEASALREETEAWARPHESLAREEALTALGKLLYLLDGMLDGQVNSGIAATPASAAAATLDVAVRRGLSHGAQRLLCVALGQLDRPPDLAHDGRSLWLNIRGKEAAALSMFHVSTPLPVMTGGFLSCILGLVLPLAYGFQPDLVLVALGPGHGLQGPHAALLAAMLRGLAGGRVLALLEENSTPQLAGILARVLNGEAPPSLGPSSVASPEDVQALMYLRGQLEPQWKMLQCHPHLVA
Description: Competitive inhibition of HDAC10 using KI-104 as substrate by fluorescence assay

[30] = system: HCT-116; experiment: Antiproliferative activity against human HCT116 cells after 96 hrs by celltiter 96 assay; format: functional, cell-based; details: HCT-116, 96 h
[31] = system: Mus musculus; experiment: Toxicity in athymic nu/nu Harlan mouse xenografted with human HCT116 cells assessed as body weight loss at 200 mg/kg, po QD for 7 days measured on day 5; format: organism-based, HCT-116; set-up: dose 200 mg/kg, route oral; details: in vivo, 168 h
[32] = system: HCT-116; experiment: Antitumor activity against human HCT116 cells xenografted in nude BALB/c mouse assessed as tumor growth inhibition at 200 mg/kg, po qd for 21 days measured on day 15; format: functional; details: read-out: TGI
[33] = system: HCT-116; experiment: Antitumor activity against human HCT116 cells xenografted in athymic nude nu/nu CD1 mouse assessed as tumor growth inhibition at 40 mg/kg, ip qd for 7 days measured on day 10; format: functional; details: HCT-116, ip, route intraperitoneal, read-out: TGI
[34] = target: Histone deacetylase 4 (Homo sapiens, UniProt P56524)
Description: Competitive inhibition of HDAC4 using KI-104 as substrate by fluorescence assay

[35] = Oral bioavailability in nude BALB/c mouse at 50 mg/kg; format: ADME, organism-based; details: in vivo
[36] = system: COLO 205; experiment: Antiproliferative activity against human COLO205 cells after 96 hrs by celltiter 96 assay; format: functional, cell-based; details: COLO 205, 96 h
[37] = system: Mus musculus; experiment: Toxicity in athymic nu/nu Harlan mouse xenografted with human HCT116 cells assessed as mouse survival at 200 mg/kg, po QD for 21 days measured on day 22; format: organism-based, HCT-116; set-up: dose 200 mg/kg, route oral; details: in vivo, 504 h

Chain of Histone deacetylase 4 (P56524 whole entry): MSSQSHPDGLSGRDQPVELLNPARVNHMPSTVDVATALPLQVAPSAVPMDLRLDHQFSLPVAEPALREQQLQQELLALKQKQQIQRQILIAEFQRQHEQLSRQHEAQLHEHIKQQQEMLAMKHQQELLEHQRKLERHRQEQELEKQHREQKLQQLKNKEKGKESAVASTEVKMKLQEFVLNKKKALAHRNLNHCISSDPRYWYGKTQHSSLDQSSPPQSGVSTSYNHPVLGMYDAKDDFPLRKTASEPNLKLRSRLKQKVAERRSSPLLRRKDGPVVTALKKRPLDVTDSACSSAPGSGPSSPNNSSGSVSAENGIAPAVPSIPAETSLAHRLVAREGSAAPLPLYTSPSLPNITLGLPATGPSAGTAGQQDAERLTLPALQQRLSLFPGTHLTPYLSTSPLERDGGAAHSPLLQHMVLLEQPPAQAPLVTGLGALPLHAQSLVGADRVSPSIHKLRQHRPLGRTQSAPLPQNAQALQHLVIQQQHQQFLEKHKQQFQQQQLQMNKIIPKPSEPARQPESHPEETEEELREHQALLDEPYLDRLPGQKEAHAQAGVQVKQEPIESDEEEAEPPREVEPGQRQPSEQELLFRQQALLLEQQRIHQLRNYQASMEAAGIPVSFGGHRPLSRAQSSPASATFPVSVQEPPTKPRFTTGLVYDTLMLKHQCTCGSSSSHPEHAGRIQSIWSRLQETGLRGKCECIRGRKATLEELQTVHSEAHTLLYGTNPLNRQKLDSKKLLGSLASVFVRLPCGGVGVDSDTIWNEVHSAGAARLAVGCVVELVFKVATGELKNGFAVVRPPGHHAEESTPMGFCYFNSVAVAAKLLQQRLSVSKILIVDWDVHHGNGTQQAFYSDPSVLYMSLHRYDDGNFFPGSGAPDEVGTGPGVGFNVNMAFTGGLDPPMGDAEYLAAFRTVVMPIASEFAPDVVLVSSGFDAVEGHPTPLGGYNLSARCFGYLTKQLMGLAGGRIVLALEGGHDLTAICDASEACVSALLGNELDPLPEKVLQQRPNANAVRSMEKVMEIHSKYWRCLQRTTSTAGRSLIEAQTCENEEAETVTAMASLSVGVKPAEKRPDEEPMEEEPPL

CN(C)CC(C)(C)Cn1c(CC(C)(C)C)nc2cc(/C=C/C(=O)NO)ccc21.Cl.Cl
Activity [1]: 13.1%
Activity [2]: 5.6%
Activity [3]: Non-toxic
half-life [4]: > 60 min
half-life [5]: 41 min
Papp A→B [6]: 194 nm/s
solubility kinetic [7]: > 200 µM
logD [8]: 2.41
half-life [9]: 20 min
Papp B→A [10]: 149 nm/s
inhibition in vivo at 50 mg/kg [11]: 55%
Activity [12]: Non-toxic
half-life [13]: > 60 min
Activity [14]: Non-toxic
inhibition in vivo at 25 mg/kg [15]: 30%
inhibition in vivo at 100 mg/kg [16]: 85%

CCCCCCc1nc2cc(/C=C/C(=O)NO)ccc2n1CCN(C)C.Cl.Cl
half-life [4]: > 60 min
half-life [5]: 10 min
Activity [17]: 18%
Papp A→B [6]: 95.9 nm/s
Activity [18]: Non-toxic
solubility kinetic [7]: > 200 µM
Activity [19]: Non-toxic
inhibition in vivo at 100 mg/kg [20]: 50%
Activity [21]: 1.9%
inhibition in vivo at 200 mg/kg [22]: 53%
inhibition in vivo at 50 mg/kg [23]: 17%
half-life [9]: 16 min
Papp B→A [10]: 260 nm/s
Activity [24]: 4.9%
half-life [13]: 10 min

O=C(/C=C/c1cccc(S(=O)(=O)Nc2ccccc2)c1)NO [BELINOSTAT]
pIC50 [25]: 6.35
pIC50 [26]: 6.17
inhibition in vivo at 200 mg/kg [27]: 29%
pKi [28]: 8.00
pKi [29]: 7.23
pIC50 [30]: 6.22
Activity [31]: 3.9%
inhibition in vivo at 200 mg/kg [32]: 42%
inhibition in vivo at 40 mg/kg [33]: 50%
inhibition in vivo at 50 mg/kg [11]: 6%
pKi [34]: 7.82
bioavailability [35]: 6.7%
pIC50 [36]: 6.15
Activity [12]: Non-toxic
Activity [37]: Non-toxic
Activity [14]: Non-toxic
inhibition in vivo at 100 mg/kg [16]: 26%
